For this assay, the system named is P388 leukemia ip, CD2F1 mice, survival T/C. The assay is described as follows: NCI In Vivo Anticancer Drug Screen. Data for tumor model P388 Leukemia (intraperitoneal) in CD2F1 (CDF1) mice. To be noted: endpoint: median survival time, higher = longer survival. An outline of the steps:
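Mice carrying the transplanted tumor received test compound or vehicle. Survival was recorded in each group, and the value is the treated-group measurement divided by that of the vehicle-treated control group.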

Setting [1] is: dose: 50.0 mg/kg/injection, schedule: Q01DX009 (ip), vehicle: saline with Tween-80.
The mark [2] stands for this setting: dose: 100.0 mg/kg/injection, schedule: Q01DX009 (ip), vehicle: saline with Tween-80.
[3] abbreviates: dose: 50.0 mg/kg/injection, schedule: Q01DX009 (ip), vehicle: Klucel (hydroxypropylcellulose) (HPC).
[4] abbreviates: dose: 100.0 mg/kg/injection, schedule: Q01DX009 (ip), vehicle: Klucel (hydroxypropylcellulose) (HPC).
Where [5] appears, read: dose: 200.0 mg/kg/injection, schedule: Q01DX009 (ip), vehicle: Klucel (hydroxypropylcellulose) (HPC).
[6] abbreviates: dose: 60.0 mg/kg/injection, schedule: Q01DX005 (ip), vehicle: saline with Tween-80.
Setting [7] is: dose: 120.0 mg/kg/injection, schedule: Q01DX005 (ip), vehicle: saline with Tween-80.
[8] abbreviates: dose: 50.0 mg/kg/injection, schedule: Q01DX005 (ip), vehicle: saline with Tween-80.
Setting [9] is: dose: 240.0 mg/kg/injection, schedule: Q01DX005 (ip), vehicle: saline with Tween-80.
Where [10] appears, read: dose: 12.5 mg/kg/injection, schedule: Q01DX009 (ip), vehicle: Klucel (hydroxypropylcellulose) (HPC).
Where [11] appears, read: dose: 25.0 mg/kg/injection, schedule: Q01DX009 (ip), vehicle: Klucel (hydroxypropylcellulose) (HPC).
Setting [12] is: dose: 50.0 mg/kg/injection, schedule: Q01DX009 (ip), vehicle: saline.

The record followed here is PubChem BioAssay AID330 (DTP/NCI, 2004).

Values joined by “and” are separate entries in the source; they are usually repeats but may differ in a detail not shown here. Identical values can stand only once. Toxic doses and inconclusive results are not listed. Square brackets hold non-standard residues; d marks the D form. Peptide text beside a SMILES is read from it. Ac5c = NC1(C(=O)O)CCCC1

As for `Cn1c(=O)c2c(ncn2CCCl)n(C)c1=O`, the T/C was 100 % of control (dose: 12.5 mg/kg/injection, schedule: Q01DX005 (ip), vehicle: distilled water + Tween-80); 105 % of control (dose: 25.0 mg/kg/injection, schedule: Q01DX005 (ip), vehicle: distilled water + Tween-80); 105 % of control (dose: 50.0 mg/kg/injection, schedule: Q01DX005 (ip), vehicle: distilled water + Tween-80); 102 % of control (dose: 100.0 mg/kg/injection, schedule: Q01DX005 (ip), vehicle: distilled water + Tween-80).

For `Cc1ccc(Cl)c2ccccc12`, the T/C under setting [1] is 113 % of control and the T/C under setting [2] is 108 % of control.

In the case of `COc1cc2oc3c(c(=O)c2c(O)c1/C=C/C(C)C)C(C=C(C)C)Oc1cc(O)ccc1-3` (configuration not stated), the T/C under setting [3] was 124 % of control, the T/C under setting [4] is 115 % of control and the T/C under setting [5] is 114 % of control.

For `Nc1cccc(C(=O)c2ccc(N)c(N)c2)c1`, the T/C is 90 % of control under setting [6] and 92 % of control under setting [7].

As for `CC(C)N(c1ccc(O)c2ccccc12)C(C)C`, the T/C by setting is: (dose: 100.0 mg/kg/injection, schedule: Q01DX001 (ip), vehicle: saline with Tween-80) 96 % of control; (dose: 200.0 mg/kg/injection, schedule: Q01DX001 (ip), vehicle: saline with Tween-80) 100 % of control; (dose: 400.0 mg/kg/injection, schedule: Q01DX001 (ip), vehicle: saline with Tween-80) 95 % of control.

For the compound `CC1S(=O)(=O)OCCCOS1(=O)=O`, the T/C was 119 % of control (dose: 12.5 mg/kg/injection, schedule: Q01DX005 (ip), vehicle: Klucel (hydroxypropylcellulose) (HPC)) and 154 % of control (dose: 25.0 mg/kg/injection, schedule: Q01DX005 (ip), vehicle: Klucel (hydroxypropylcellulose) (HPC)).

With `COc1ccc(C2(Cc3ccccc3C#N)OCCO2)cc1OC`, the T/C was 95 % of control (dose: 100.0 mg/kg/injection, schedule: Q04DX002 (ip), vehicle: Klucel (hydroxypropylcellulose) (HPC)); 101 % of control (dose: 200.0 mg/kg/injection, schedule: Q04DX002 (ip), vehicle: Klucel (hydroxypropylcellulose) (HPC)); 99 % of control (dose: 400.0 mg/kg/injection, schedule: Q04DX002 (ip), vehicle: Klucel (hydroxypropylcellulose) (HPC)).

With `O=C(O)Cc1cn2cc(Cl)ccc2n1`, the T/C reads like this: (dose: 100.0 mg/kg/injection, schedule: Q01DX001 (ip), vehicle: Klucel (hydroxypropylcellulose) (HPC)) 102 % of control; (dose: 200.0 mg/kg/injection, schedule: Q01DX001 (ip), vehicle: Klucel (hydroxypropylcellulose) (HPC)) 101 % of control; (dose: 400.0 mg/kg/injection, schedule: Q01DX001 (ip), vehicle: Klucel (hydroxypropylcellulose) (HPC)) 95 % of control.

As for `O=C1OCC2C1Cc1cc(O)c(O)cc1C2c1ccc(O)c(O)c1` (configuration not stated), the T/C reads like this: under setting [4], 94 % of control; under setting [5], 92 % of control; (dose: 400.0 mg/kg/injection, schedule: Q01DX009 (ip), vehicle: Klucel (hydroxypropylcellulose) (HPC)) 111 % of control.

`O=C1c2ccccc2C(=O)c2c1oc1c2ccc2ccccc21`: the T/C is 98 % of control (dose: 12.5 mg/kg/injection, schedule: Q01DX009 (ip), vehicle: saline with Tween-80); 92 % of control (dose: 25.0 mg/kg/injection, schedule: Q01DX009 (ip), vehicle: saline with Tween-80); 99 % of control under setting [1]; 87 % of control under setting [2].

In the case of `O=c1c2ccccc2oc2nc3cc(Cl)ccc3n12`, the T/C reads like this: under setting [8], 104 % of control; (dose: 100.0 mg/kg/injection, schedule: Q01DX005 (ip), vehicle: saline with Tween-80) 95 % of control; (dose: 200.0 mg/kg/injection, schedule: Q01DX005 (ip), vehicle: saline with Tween-80) 98 % of control.

Turning to `CCOC(=O)Nc1ccc(C2SCCN2C(=O)NC)cc1` (configuration not stated), the T/C by setting is: under setting [6], 109 % of control; under setting [7], 103 % of control; under setting [9], 100 % of control.

Take `CCCCOCN(COCCCC)CC(C)(C)C`: the T/C is 107 % of control under setting [1]; 105 % of control under setting [2]; 109 % of control (dose: 200.0 mg/kg/injection, schedule: Q01DX009 (ip), vehicle: saline with Tween-80).

Consider `Cc1s\c(=N/N=N/N=c2\sc(C)c(C)n2Cc2ccccc2)n(Cc2ccccc2)c1C`, for which the T/C is, setting by setting: under setting [6], 103 % of control; under setting [7], 97 % of control; under setting [9], 103 % of control.

As to `Cc1nn(CC(=O)O)c(=O)c(C#N)c1-c1ccccc1`, the T/C is, setting by setting: (dose: 62.5 mg/kg/injection, schedule: Q04DX002 (ip), vehicle: other) 116 % of control; (dose: 125.0 mg/kg/injection, schedule: Q04DX002 (ip), vehicle: other) 102 % of control; (dose: 250.0 mg/kg/injection, schedule: Q04DX002 (ip), vehicle: other) 115 % of control; (dose: 500.0 mg/kg/injection, schedule: Q04DX002 (ip), vehicle: other) 109 % of control.

As for `CNC(=O)OCc1c(COC(=O)NC)c(C)n(-c2ccc(OC)cc2)c1C`, the T/C is, setting by setting: under setting [10], 152 % of control; under setting [11], 153 % of control; under setting [3], 171 % of control.

As for `N#C/C(=C\c1ccccn1)c1nc(-c2ccc(Cl)cc2)cs1`, the T/C is 102 % of control under setting [12]; 92 % of control (dose: 100.0 mg/kg/injection, schedule: Q01DX009 (ip), vehicle: saline); 92 % of control (dose: 200.0 mg/kg/injection, schedule: Q01DX009 (ip), vehicle: saline).

As to `COc1ccccc1N=NC1=C2Sc3ccccc3N=C1N(c1ccccn1)C(=S)N2c1ccc(Cl)cc1`, the T/C (dose: 12.5 mg/kg/injection, schedule: Q01DX005 (ip), vehicle: saline with Tween-80) was 103 % of control; the T/C (dose: 25.0 mg/kg/injection, schedule: Q01DX005 (ip), vehicle: saline with Tween-80) is 100 % of control; the T/C under setting [8] is 110 % of control and 117 % of control.

As to `NC1(C(=O)NCC(=O)O)CCCC1` (H-[Ac5c]-Gly-OH), the T/C (dose: 50.0 mg/kg/injection, schedule: Q04DX003 (ip), vehicle: Klucel (hydroxypropylcellulose) (HPC)) is 99 % of control; the T/C (dose: 100.0 mg/kg/injection, schedule: Q04DX003 (ip), vehicle: Klucel (hydroxypropylcellulose) (HPC)) was 99 % of control; the T/C (dose: 200.0 mg/kg/injection, schedule: Q04DX003 (ip), vehicle: Klucel (hydroxypropylcellulose) (HPC)) is 97 % of control; the T/C (dose: 400.0 mg/kg/injection, schedule: Q04DX003 (ip), vehicle: Klucel (hydroxypropylcellulose) (HPC)) is 112 % of control.

As to `C[N+]1(C)CCC(OC(=O)C(O)(c2ccccc2)C2CCCC2)C1` (configuration not stated), the T/C by setting is: under setting [10], 95 % of control; under setting [11], 97 % of control; (dose: 25.0 mg/kg/injection, schedule: Q04DX003 (ip), vehicle: saline with Tween-80) 105 % of control; under setting [3], 89 % of control and 95 % of control; (dose: 50.0 mg/kg/injection, schedule: Q04DX003 (ip), vehicle: saline with Tween-80) 102 % of control; (dose: 100.0 mg/kg/injection, schedule: Q04DX003 (ip), vehicle: saline with Tween-80) 99 % of control.

Turning to `COC[N+](C)(C)c1ccc(/C=C/C=O)cc1`, the T/C by setting is: (dose: 12.5 mg/kg/injection, schedule: Q01DX009 (ip), vehicle: saline) 114 % of control; (dose: 25.0 mg/kg/injection, schedule: Q01DX009 (ip), vehicle: saline) 109 % of control; under setting [12], 118 % of control and 98 % of control.
